What was measured:
[1] = tested on: metastatic SUM-52 PE breast cancer cells; assay: SU-ECM invasion assay, SUM-52 PE breast cancer cells; type: cell-based, human; conditions: SUM-52 PE; for inhibition of PHSRN-induced invasion of SU-ECM: serum free medium, 100 ng per ml PHSRN, FIG. 5B; for inhibition of serum-induced invasion of SU-ECM: FIG. 5A
Experimental: Human breast carcinoma cell lines SUM 52 PE and SUM 44 PE were originally cultured from the pleural effusions of patients with metastatic breast cancer; and SUM 102 was cultured from a primary, microinvasive breast carcinoma (Ethier, S. P., Mahack, M. L., Gullick, W. J., Frank, T. S., and Weber, B. L. Differential isolation of normal luminal mammary epithelial cells and breast cancer cells from primary and metastatic sites using selective media. Cancer Res. 53: 627-635).
(§1) Adult Strongylocentrotus purpuratus sea urchins were obtained from Pacific BioMarine, and their embryos were cultured to the early pluteus stage in artificial sea water at 15° C. SU-ECM were prepared from them by treatment with nonionic detergent and strerilized by dilution in the appropriate media.
(§2) Cells were harvested by rinsing in Hanks' balanced salt solution, followed by brief treatment with 0.25% trypsin, 0.02% EDTA, and pelleting and resuspension in the appropriate medium with or without 5% FCS at a density of about 50,000 cells per ml. When appropriate, purified bovine plasma fibronectin (Sigma), purified 120 kDa chymotryptic fragment (Gibco BRL), PHSRN (SEQ ID NO:1) or PHSCN (SEQ ID NO:86) peptides (synthesized at the Biomedical Research Core Facilities of the University of Michigan), or GRGDSP (SEQ ID NO:83) or GRGESP (SEQ ID NO:84) peptides (Gibco BRL) were added to the resuspended cells prior to placement of the cells on SU-ECM. In each well of a plate used for an invasion assay, SU-ECM were placed in 0.5 ml of the appropriate medium, and 0.5 ml of the resuspended cells dropped on their exterior surfaces. Invasion assays were incubated 1 to 16 hours prior to assay. If some circumstances, invasion assays were fixed in phosphate-buffered saline (PBS) with 2% formaldehyde for 5 minutes at room temperature, then rinsed into PBS.
(§3) Invasion assays were coded and scored blindly by microscopic examination under phase contrast at 200- and 400-fold magnification. Each cell contacting an SU-ECM was scored for its position relative to the exterior or interior surfaces. A cell was judged to have invaded if it was located on an interior surface below the focal plane passing through the upper surface of the SU-ECM, but above the focal plane passing through its lower surface. The minimum viability of the cells in each assay was always ascertained at the time of assay by determining the fraction of spread, adherent cells on the bottom of each well scored.
(§4) An invasion frequency is defined as the fraction of cells in contact with basement membranes which were located in their interiors at the time of assay. Thus, an invasion frequency of 1 denotes invasion by 100% of the cells in contact with basement membranes. Invasion frequencies were determined multiple times for each cell type assayed. For each type of cell assayed the mean and standard deviation of the invasion frequencies were calculated.
The method of Example 4 is employed, with the addition of varying concentrations of the PHSCN (SEQ ID NO:86) peptide.
Thus, the procedure in Example 4 provides a method for determining the inhibitory potential of the PHSCN (SEQ ID NO:86) peptide by comparing the number of cell invasions in the presence of the PHSCN (SEQ ID NO:86) peptide, with the number of cell invasions in the absence of the PHSCN (SEQ ID NO:86) peptide.

[2] = tested on: normal human mammary epithelial cells; assay: SU-ECM invasion assay, normal human mammary epithelial cells; type: cell-based; conditions: 10% FCS, 100 ng per ml PHSRN, FIG. 5B
Experimental: as §1, with “media. […]” for “media.”
as §3, with “A cell was judged to have invaded if it was located on an interior surface below the focal plane passing through the upper surface of the SU-ECM, but above the focal plane passing through its lower surface.” left out
as §4, with “Thus, an invasion frequency of 1 denotes invasion by 100% of the cells in contact with basement membranes.” left out, “calculated. […]” for “calculated.”

[3] = tested on: rat metastatic prostate carcinoma MatLyLu (MLL) cells; assay: SU-ECM invasion assay, rat MatLyLu prostate carcinoma cells; type: cell-based; conditions: for inhibition of PHSRN-induced invasion of SU-ECM: serum free media, 100 ng per ml PHSRN, FIG. 7B
Experimental: as §1, §2, §3, §4
The result of adding a varying concentration of the PHSCN (SEQ ID NO:86) peptide to PHSRN-induced (SEQ ID NO:1) MLL cells in serum free media is shown in FIG. 7B, where 100 ng per ml of PHSRN (SEQ ID NO:1) was used to induce invasion.
The procedure described in Example 10, was employed using SU-ECM substrates in 10% FCS and PHS(hC)N (SEQ ID NO:85) instead of PHSCN (SEQ ID NO:86). The result of adding varying concentrations of the PHS(hC)N (SEQ ID NO:85) peptide to serum-induced MLL cells indicates this peptide also has an inhibitory affect on cell invasion (see FIG. 8).

Pro-His-Ser-Cys-Asn (PHSCN)
inhibition of PHSRN-induced invasion of SU-ECM ([1]; higher concentrations): almost complete inhibition
inhibition of PHSRN-induced invasion of SU-ECM ([1]; low concentrations): substantial inhibitory affect
inhibition of serum-induced invasion of SU-ECM ([1]; relatively high PHSCN concentrations): complete inhibition
inhibition of serum-induced invasion of SU-ECM ([1]; relatively low PHSCN concentrations): substantial inhibitory affect
inhibition of PHSRN-induced invasion of SU-ECM ([2]; higher concentrations): almost complete inhibition
inhibition of PHSRN-induced invasion of SU-ECM ([2]; low concentrations): substantial inhibitory affect
inhibition of PHSRN-induced invasion of SU-ECM ([3]; higher concentrations): almost complete inhibition
inhibition of PHSRN-induced invasion of SU-ECM ([3]; low concentrations): substantial inhibitory affect
inhibition of serum-induced invasion of SU-ECM ([3]; serum-induced, I microgram per ml peptide, FIG. 7A): complete inhibition of invasion
